Broadly, the EC50 is the concentration at which the effect is half-maximal. By IC50 is commonly meant the concentration that inhibits the measured activity by half.

Consider 24 compounds from patent publication US20100075965A1, “PI3 KINASE INHIBITORS AND METHODS OF THEIR USE” (Novartis AG, priority 2006, published 2010).

Where two headings read alike, the source gives them in different places. Bounds are passed on as bounds.

For one assay, the system named is A2780 cells. The experiment in a line: Viability assay in A2780 (Cell Titer Glo). Format: cell-based, human. The note with it: Homo sapiens, A2780 cells, read-out: A2780 Cell prolif. EC50. In a few lines: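 A2780 cells (1,000/well, DMEM + 10% FBS) were exposed to 3-fold serial dilutions of compound for 72 hrs at 37° C, 5% CO2. Viable cells were read by Cell Titer Glo luminescence, in duplicate, and EC50 values were derived from the curves.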

The next assay deals with PI3 K Alpha (Homo sapiens, UniProt P42336). The experiment in a line: PI3 kinase phosphorylation assays (homogenous solution phase, one step solid phase, ATP depletion/KinaseGlo). Format: biochemical. In general terms: Kinase-Glo reads ATP consumption through a luciferase reaction.
Assay [1] deals with pSer473-Akt in A2780 cells. The assay can be described thus: pSer473 Akt assay to monitor PI3K pathway in A2780 cells (MSD). Particulars: Homo sapiens, A2780 cells. Format: cell-based. On the procedure:
In this method, an assay for measuring the PI3K-mediated pSer^473-Akt status after treatment with representative inhibitor compounds of the preferred embodiments is described.
A2780 cells were cultured in DMEM supplemented with 10% FBS, L-glutamine, sodium pyruvate, and antibiotics. Cells were plated in the same medium at a density of 15,000 cells per well into 96 well tissue culture plates, with outside wells vacant, and allowed to adhere overnight.
Test compounds supplied in DMSO were diluted further into DMSO at 500 times the desired final concentrations before dilution into culture media to 2 times the final concentrations. Equal volumes of 2× compounds in media were added to the cells in 96 well plates and incubated at 37° C. for one hour. The media and compounds were then removed, the plates chilled and cells lysed in a lysis buffer (150 mM NaCl, 20 mM Tris pH 7.5, 1 mM EDTA, 1 mM EGTA, 1% Triton X-100) supplemented with phosphatase and protease inhibitors. After thorough mixing, lysates were transferred to both pSer473Akt and total Akt assay plates from Meso Scale Discovery (MSD), and incubated overnight with shaking at 4° C. The plates were washed with 1×MSD wash buffer and the captured analytes detected with secondary antibodies. After incubation with the secondary antibody at room temperature for 1-2 hours, the plates were washed again and 1.5× concentration of Read Buffer T (MSD) was added to the wells.
The assays were read on a SECTOR Imager 6000 instrument (Meso Scale Discovery). Ratios of the signal from pSer473Akt and total Akt assays were used to correct for any variability and the percent inhibition of pSer473Akt from the total signal seen in cells treated with compound versus DMSO alone was calculated and used to determine EC50 values for each compound as shown in Tables 1 and 2 in the column labeled “A2780 pAKT473 EC50”.

Where [2] appears, read: ATP depletion assay, read-out: PI3 K Alpha IC50.
The mark [3] stands for this setting: 1 h, one hour incubation, read-out: A2780 pAKT473 EC50.

Chain of PI3 K Alpha (P42336 whole entry): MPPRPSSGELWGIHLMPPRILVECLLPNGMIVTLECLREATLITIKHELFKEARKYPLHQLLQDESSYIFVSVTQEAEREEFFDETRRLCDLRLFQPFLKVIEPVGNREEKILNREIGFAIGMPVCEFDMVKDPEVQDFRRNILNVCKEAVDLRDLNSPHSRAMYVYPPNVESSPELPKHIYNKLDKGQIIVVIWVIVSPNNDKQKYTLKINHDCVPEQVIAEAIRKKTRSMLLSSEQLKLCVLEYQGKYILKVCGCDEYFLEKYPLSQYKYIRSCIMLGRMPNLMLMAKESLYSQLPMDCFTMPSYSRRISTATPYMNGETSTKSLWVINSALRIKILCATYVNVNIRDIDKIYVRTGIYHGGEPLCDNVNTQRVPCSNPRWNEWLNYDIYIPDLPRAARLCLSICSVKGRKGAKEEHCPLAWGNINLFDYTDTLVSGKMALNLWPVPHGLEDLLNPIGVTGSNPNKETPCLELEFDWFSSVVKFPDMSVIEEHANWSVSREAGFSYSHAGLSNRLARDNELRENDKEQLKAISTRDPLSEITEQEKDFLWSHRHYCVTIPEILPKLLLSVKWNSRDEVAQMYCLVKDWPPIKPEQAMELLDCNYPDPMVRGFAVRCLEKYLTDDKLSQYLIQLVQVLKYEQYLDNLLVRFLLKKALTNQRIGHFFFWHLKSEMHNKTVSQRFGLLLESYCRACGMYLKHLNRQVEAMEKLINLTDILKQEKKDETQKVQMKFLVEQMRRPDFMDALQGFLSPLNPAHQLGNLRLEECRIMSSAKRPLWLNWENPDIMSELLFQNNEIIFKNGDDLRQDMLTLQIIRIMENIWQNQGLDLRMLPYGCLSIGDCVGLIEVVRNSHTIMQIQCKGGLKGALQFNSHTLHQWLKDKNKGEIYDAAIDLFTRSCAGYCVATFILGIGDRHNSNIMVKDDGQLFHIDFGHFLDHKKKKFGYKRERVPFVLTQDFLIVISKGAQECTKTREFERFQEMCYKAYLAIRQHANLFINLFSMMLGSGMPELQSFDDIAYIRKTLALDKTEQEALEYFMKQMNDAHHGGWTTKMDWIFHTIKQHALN
Chain of PI3 K Alpha (P27986 whole entry partner): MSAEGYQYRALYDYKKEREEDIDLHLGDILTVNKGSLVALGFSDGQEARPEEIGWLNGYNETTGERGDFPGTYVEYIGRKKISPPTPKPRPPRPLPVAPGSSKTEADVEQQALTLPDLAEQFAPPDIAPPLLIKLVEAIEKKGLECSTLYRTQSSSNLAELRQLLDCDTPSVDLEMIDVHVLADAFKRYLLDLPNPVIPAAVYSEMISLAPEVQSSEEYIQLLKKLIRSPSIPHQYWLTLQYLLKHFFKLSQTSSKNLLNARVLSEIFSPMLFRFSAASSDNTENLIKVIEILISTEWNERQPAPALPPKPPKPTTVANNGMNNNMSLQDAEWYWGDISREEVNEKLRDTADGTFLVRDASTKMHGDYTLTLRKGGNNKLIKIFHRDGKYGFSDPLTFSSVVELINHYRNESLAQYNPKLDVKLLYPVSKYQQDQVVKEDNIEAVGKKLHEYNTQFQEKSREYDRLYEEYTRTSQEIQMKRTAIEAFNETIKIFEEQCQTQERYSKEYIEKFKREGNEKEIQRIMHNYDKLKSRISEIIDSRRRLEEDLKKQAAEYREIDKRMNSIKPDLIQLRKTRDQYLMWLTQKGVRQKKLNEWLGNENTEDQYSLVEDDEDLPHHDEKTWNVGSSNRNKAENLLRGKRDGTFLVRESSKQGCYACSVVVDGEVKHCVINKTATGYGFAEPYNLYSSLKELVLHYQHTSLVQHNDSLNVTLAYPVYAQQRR

`CC(=O)Nc1cn2nc(-c3cnc(N)c(-c4ccccc4OC(F)(F)F)c3)ccc2n1` [Example 90, N-(6-(6-amino-5-(2-(trifluoromethoxy)phenyl)pyridin-3-yl)imidazo[1,2-b]pyridazin-2-yl)acetamide]: the EC50 (with A2780 cells; in assay [1] (read-out: A2780 pAKT 473 EC50)) was under 1000 nM in each case. Also, the concentration for half-maximal inhibition (IC50) at PI3 K Alpha (read-out: PI3K Alpha IC50) is under 1000 nM.

Consider `CCN1CCN(CCCC(=O)Nc2cn3cc(-c4cnc(N)c(C(F)(F)F)c4)ccc3n2)CC1` [Example 206, N-(6-(6-amino-5-(trifluoromethyl)pyridin-3-yl)imidazo[1,2-a]pyridin-2-yl)-4-(4-ethylpiperazin-1-yl)butanamide], for which the EC50 in the assay on A2780 cells was under 10000 nM; in assay [1] (read-out: A2780 pAKT 473 EC50) it was under 1000 nM. Further, on PI3 K Alpha (read-out: PI3K Alpha IC50), the IC50 was under 1000 nM.

Regarding `CC(=O)Nc1cn2cc(-c3cnc(N)c(-c4cccc(N5CCOCC5)c4)c3)ccc2n1` [Example 86, N-(6-(6-amino-5-(3-morpholino-phenyl)pyridin-3-yl)imidazo[1,2-a]pyridin-2-yl)acetamide], the EC50 (in the assay on A2780 cells; in assay [1] (read-out: A2780 pAKT 473 EC50)) was under 1000 nM each time. In addition, on PI3 K Alpha (read-out: PI3K Alpha IC50), the IC50 is under 1000 nM.

As to `CC(=O)Nc1cn2cc(-c3cnc(N)c(-c4ccccc4C(F)(F)F)c3)ccc2n1` [Example 120, N-(6-(6-amino-5-(2-(trifluoromethyl)phenyl)pyridin-3-yl)imidazo[1,2-a]pyridin-2-yl)acetamide], the EC50 in the assay on A2780 cells was under 10000 nM; in assay [1] (read-out: A2780 pAKT 473 EC50) it was under 1000 nM. Further, the 50% inhibitory concentration (IC50) on PI3 K Alpha (read-out: PI3K Alpha IC50) was under 1000 nM.

For the compound `CC(=O)Nc1cn2cc(-c3cnc(N)c(Oc4ccc(F)cc4)n3)ccc2n1` [Example 63, N-(6-(5-amino-6-(4-fluorophenoxy)pyrazin-2-yl)imidazo[1,2-a]pyridin-2-yl)acetamide], the EC50 (in the assay with A2780 cells; in assay [1] (read-out: A2780 pAKT 473 EC50)) was under 1000 nM each time. For the same compound, the IC50 at PI3 K Alpha (read-out: PI3K Alpha IC50) was under 1000 nM.

For `CC(=O)Nc1nc2ccc(-c3cnc(N)c(C(F)(F)F)c3)c(F)c2s1` [Example 2-30, N-[6-(6-Amino-5-trifluoromethyl-pyridin-3-yl)-7-fluoro-benzothiazol-2-yl]-acetamide], the values for the EC50 (in the assay with A2780 cells (72 hrs); in assay [1] (setting [3])) were under 10000 nM and under 1000 nM, respectively. Further, at PI3 K Alpha (setting [2]), the IC50 was under 1000 nM.

`CC(=O)Nc1cn2cc(-c3cnc(N)c(N4CCN(C)CC4)n3)ccc2n1` [Example 131, N-(6-(5-amino-6-(4-methylpiperazin-1-yl)pyrazin-2-yl)imidazo[1,2-a]pyridin-2-yl)acetamide]: the EC50 in the assay on A2780 cells was under 10000 nM; in assay [1] (read-out: A2780 pAKT 473 EC50) it was under 1000 nM. The concentration for half-maximal inhibition (IC50) on PI3 K Alpha (read-out: PI3K Alpha IC50) is under 1000 nM.

As to `CC(=O)Nc1cn2cc(-c3cnc(N)c(OC4CN(C(=O)OC(C)(C)C)C4)n3)ccc2n1` [Example 67, tert-butyl 3-(6-(2-acetamido-imidazo[1,2-a]pyridin-6-yl)-3-aminopyrazin-2-yloxy)axetidine-1-carboxylate], the EC50 (in the assay with A2780 cells; in assay [1] (read-out: A2780 pAKT 473 EC50)) was under 1000 nM in each case. The IC50 at PI3 K Alpha (read-out: PI3K Alpha IC50) is under 1000 nM.

Consider `CC(=O)Nc1cn2cc(-c3cnc(N)c(-c4ccccc4)c3)ccc2n1` [Example 124, N-(6-(6-amino-5-phenylpyridin-3-yl)imidazo[1,2-a]pyridin-2-yl)acetamide], for which the EC50 in the assay on A2780 cells was under 10000 nM; in assay [1] (read-out: A2780 pAKT 473 EC50), under 1000 nM. The IC50 at PI3 K Alpha (read-out: PI3K Alpha IC50) was under 1000 nM.

In the case of `CCC(=O)Nc1cn2nc(-c3cnc(N)c(C(F)(F)F)c3)ccc2n1` [Example 96, N-(6-(6-amino-5-(trifluoromethyl)pyridin-3-yl)imidazo[1,2-b]pyridazin-2-yl)propionamide], the EC50 (in the assay with A2780 cells; in assay [1] (read-out: A2780 pAKT 473 EC50)) was under 1000 nM each time. Besides, the IC50 at PI3 K Alpha (read-out: PI3K Alpha IC50) was under 1000 nM.

Regarding `CC(=O)Nc1nc2ccc(-c3cnc(N)c(C(=O)N4CCOCC4)c3)cc2s1` [Example 2-26, N-{6-[6-Amino-5-(morpholine-4-carbonyl)-pyridin-3-yl]-benzothiazol-2-yl}-acetamide], the EC50 in the assay with A2780 cells (72 hrs) was under 10000 nM; in assay [1] (setting [3]) it was under 1000 nM. Further, the IC50 on PI3 K Alpha (setting [2]) was under 1000 nM.

For the compound `CC(=O)Nc1cn2cc(-c3cnc(N)c(-c4ccccc4N4CCOCC4)c3)ccc2n1` [Example 105, N-(6-(6-amino-5-(2-morpholino-phenyl)pyridin-3-yl)imidazo[1,2-a]pyridin-2-yl)acetamide], the EC50 (in the assay with A2780 cells; in assay [1] (read-out: A2780 pAKT 473 EC50)) was under 1000 nM each time. For the same compound, the IC50 at PI3 K Alpha (read-out: PI3K Alpha IC50) was under 1000 nM.

As to `CC(=O)Nc1cn2cc(-c3cnc(N)c(-c4cccc(C(F)(F)F)c4)c3)ccc2n1` [Example 88, N-(6-(6-amino-5-(3-(trifluoromethyl)phenyl)pyridin-3-yl)imidazo[1,2-a]pyridin-2-yl)acetamide], the EC50 (in the assay with A2780 cells; in assay [1] (read-out: A2780 pAKT 473 EC50)) was under 1000 nM in each case. For the same compound, the IC50 on PI3 K Alpha (read-out: PI3K Alpha IC50) is under 1000 nM.

Turning to `Cc1cc(C(=O)Nc2cn3cc(-c4cnc(N)c(C(F)(F)F)c4)ccc3n2)no1` [Example 94, N-(6-(6-amino-5-(trifluoromethyl)pyridin-3-yl)imidazo[1,2-a]pyridin-2-yl)-5-methylisoxazole-3-carboxamide], the EC50 (in the assay with A2780 cells; in assay [1] (read-out: A2780 pAKT 473 EC50)) was under 1000 nM in each case. In addition, the IC50 on PI3 K Alpha (read-out: PI3K Alpha IC50) is under 1000 nM.

As for `CC(=O)Nc1cn2cc(-c3cnc(N)c(-c4ccc(N5CCOCC5)cc4)c3)ccc2n1` [Example 39, N-(6-(6-amino-5-(4-morpholino-phenyl)pyridin-3-yl)imidazo[1,2-a]pyridin-2-yl)acetamide], the EC50 (with A2780 cells; in assay [1] (read-out: A2780 pAKT 473 EC50)) was under 10000 nM throughout. Further, the IC50 at PI3 K Alpha (read-out: PI3K Alpha IC50) was under 10000 nM.

Regarding `CC(=O)Nc1cn2c(C)c(-c3cnc(N)c(C(F)(F)F)c3)ccc2n1` [Example 194, N-(6-(6-amino-5-(trifluoromethyl)pyridin-3-yl)-5-methylimidazo[1,2-a]pyridin-2-yl)acetamide], the EC50 (in the assay with A2780 cells; in assay [1] (read-out: A2780 pAKT 473 EC50)) was under 10000 nM throughout. Also, the IC50 on PI3 K Alpha (read-out: PI3K Alpha IC50) was under 1000 nM.

Take `CC(=O)Nc1cn2cc(-c3cnc(N)nc3)ccc2n1` [Example 4, N-[6-(2-Amino-pyrimidin-5-yl)-imidazo[1,2-a]pyridin-2-yl]-acetamide]: the EC50 in the assay with A2780 cells is under 25000 nM; in assay [1] (read-out: A2780 pAKT 473 EC50) it was under 10000 nM. Also, the IC50 on PI3 K Alpha (read-out: PI3K Alpha IC50) is under 1000 nM.

`COCCOc1nc(-c2ccc3nc(NC(C)=O)sc3c2)cnc1N` [Example 2-32, N-(6-(5-amino-6-(2-methoxyethoxy)pyrazin-2-yl)benzo[d]thiazol-2-yl)acetamide]: the EC50 is under 10000 nM with A2780 cells (72 hrs) and under 1000 nM in assay [1] (setting [3]). Besides, at PI3 K Alpha (setting [2]), the IC50 is under 1000 nM.

In the case of `CCOCC(=O)Nc1cn2nc(-c3cnc(N)c(C(F)(F)F)c3)ccc2n1` [Example 118, N-(6-(6-amino-5-(trifluoromethyl)pyridin-3-yl)imidazo[1,2-b]pyridazin-2-yl)-2-ethoxyacetamide], the EC50 in the assay on A2780 cells is under 10000 nM; in assay [1] (read-out: A2780 pAKT 473 EC50), under 1000 nM. In addition, on PI3 K Alpha (read-out: PI3K Alpha IC50), the IC50 was under 1000 nM.

As to `COC(=O)Nc1nc2ccc(-c3ccc(N)nc3)cc2s1` [Example 2-3, [6-(6-Amino-pyridin-3-yl)-benzothiazol-2-yl]-carbamic acid methyl ester], the results for the EC50 (in the assay on A2780 cells (72 hrs); in assay [1] (setting [3])) were under 10000 nM and under 1000 nM, respectively. Further, the IC50 at PI3 K Alpha (setting [2]) was under 1000 nM.

With `Nc1ccc(-c2ccc3nc(NC(=O)CN4CCOCC4)sc3c2)cn1` [Example 2-16, N-[6-(6-Amino-pyridin-3-yl)-benzothiazol-2-yl]-2-morpholin-4-yl-acetamide], the EC50 is under 25000 nM with A2780 cells (72 hrs) and under 1000 nM in assay [1] (setting [3]). Besides, at PI3 K Alpha (setting [2]), the IC50 is under 1000 nM.

As for `CC(=O)Nc1cn2nc(-c3cnc(N)c(C(=O)NCCNC(=O)OC(C)(C)C)c3)ccc2n1` [Example 103, tert-butyl 2-(5-(2-acetamido-imidazo[1,2-b]pyridazin-6-yl)-2-aminonicotin-amido)ethyl-carbamate], the EC50 (with A2780 cells; in assay [1] (read-out: A2780 pAKT 473 EC50)) was under 1000 nM throughout. Further, at PI3 K Alpha (read-out: PI3K Alpha IC50), the IC50 was under 1000 nM.

On to `Nc1ncc(-c2ccc3nc(NC(=O)CCC4CCCCN4)cn3n2)cc1C(F)(F)F` (stereo not drawn) [Example 59, N-(6-(6-amino-5-(trifluoromethyl)pyridin-3-yl)imidazo[1,2-b]pyridazin-2-yl)-3-(piperidin-2-yl)propanamide], for which the EC50 (in the assay on A2780 cells; in assay [1] (read-out: A2780 pAKT 473 EC50)) was under 1000 nM throughout. The IC50 at PI3 K Alpha (read-out: PI3K Alpha IC50) was under 1000 nM.

`CC(=O)Nc1cn2nc(-c3cnc(N)c(-c4ccc(C(F)(F)F)cc4)c3)ccc2n1` [Example 107, N-(6-(6-amino-5-(4-(trifluoromethyl)phenyl)pyridin-3-yl)imidazo[1,2-b]pyridazin-2-yl)acetamide]: the EC50 (with A2780 cells; in assay [1] (read-out: A2780 pAKT 473 EC50)) was under 1000 nM throughout. Moreover, the IC50 on PI3 K Alpha (read-out: PI3K Alpha IC50) was under 1000 nM.
